Columns and labels:
[1] = tested on: OCI-AML2 cells; experiment: Mitochondrial membrane potential (Muse MitoPotential Kit); format: cell-based, human; settings: SACLAC 5 μM; time course
Experimental: Apoptosis in cell lines was assessed after treating 2.5×10^5 cells per ml with drug or vehicle in a 48-well plate for the indicated time points and doses. Primary human AML cells were pre-incubated with SFEM for 48 hours before plating 2×10^5 cells in 24-well plates for the indicated times point and doses. Samples were stained using the Muse Annexin V & Dead Cell Kit (Millipore #MCH100105). Change in mitochondrial membrane potential in cell lines was measured with the Muse® MitoPotential Kit (#MCH100110, MilliporeSigma, Burlington, Mass., United States of America). Caspase activation was measured using the Muse® Caspase 3/7 Assay Kit (#MCH100108, MilliporeSigma, Burlington, Mass., United States of America). For rescue experiments, cells were plated at 2.5×10^4 well in a 96-well plate 24 hours after electroporation. Cells were treated with DMSO or […] for 48 hours and apoptosis was detected as stated above. All kits were used according to manufacturer's protocol. Cells were then analyzed using the Muse® Cell Analyzer (MilliporeSigma, Burlington, Massachusetts, United States of America) (35,36). Experiments included positive and negative controls for proper analysis.

[2] = Pharmacokinetics, SACLAC in blood/serum by mass spectrometry; format: in vivo
Experimental: More particularly, maximum tolerated dose of SACLAC was determined in NOD-scid IL2Rgamma^null (NSG) mice (n=5; Jackson Laboratories, Bar Harbor, Me., United States of America). Mice were injected with SACLAC reconstituted in β-HPCD (IV) daily for 5 days at a dose of 5 mg/kg body weight, respectively. For pharmacokinetics studies, Swiss Webster mice (n=3; Charles River Laboratories, Wilmington, Mass., United States of America) were injected with SACLAC dissolved in DMSO (40 mg/kg body weight, intraperitoneally) or dissolved in β-HPCD (5 mg/kg body weight, via tail-vein injection). Mice were euthanized and blood was harvested at time points ranging from 0 to 48 hours. Serum concentration of SACLAC was measured by mass spectrometry quantification relative to SACLAC standard using the method referenced above.

[3] = tested on: THP-1, HL60-VCR and KG1a cell lines; experiment: Western blot of SF3B1 and Mcl-1S/L in further cell lines; format: cell-based, human; settings: 20 μM SACLAC; 48 hours; all three cell lines
Experimental: Cells were plated at 2.5×10^5 cells per ml in 6-well plates and treated with drug, vehicle or siRNA at the indicated doses and time points. Cells were harvested, washed with PBS and lysed prior to preparation of protein extracts for western blotting.
More particularly, cells were lysed with RIPA buffer (#R0278, Sigma, St. Louis, Mo., United States of America) containing phosphatase inhibitor cocktails 2 and 3 (Sigma #P5726, #P0044) and protease inhibitor cocktail (#P8340, Sigma, St. Louis, Mo., United States of America). Protein was quantified using a bicinchoninic acid (BCA) protein assay kit (#23225, Pierce, Waltham, Mass., United States of America). Samples were resolved on a Bolt 4-12% SDS-PAGE gel (#NW00082, ThermoFisher Scientific, Waltham, Mass., United States of America) and transferred to PVDF membrane (#170-4274, Bio-Rad Laboratories, Hercules, Calif., United States of America). Antibodies were obtained from Cell Signaling Technology (Danvers, Mass., United States of America) unless indicated otherwise. […] Quantification was done using Bio-Rad ImageLab 6.0.1 software (Bio-Rad Laboratories, Hercules, Calif., United States of America). For quantification, bands were normalized to β-actin as a loading control.

[4] = biological target: T1, acid ceramidase (AC) (Homo sapiens, UniProt Q13510); experiment: Acid ceramidase activity assay (RBM14C12 fluorogenic substrate) in human AML cell lines; format: cell-based; settings: SACLAC 2.5 μM, 24-hour treatment
T1 construct: endogenous in cells; host or cells: HL-60/VCR, THP-1 and OCI-AML2 human AML cell lines
T1 sequence (Q13510 143-395 limits assumed): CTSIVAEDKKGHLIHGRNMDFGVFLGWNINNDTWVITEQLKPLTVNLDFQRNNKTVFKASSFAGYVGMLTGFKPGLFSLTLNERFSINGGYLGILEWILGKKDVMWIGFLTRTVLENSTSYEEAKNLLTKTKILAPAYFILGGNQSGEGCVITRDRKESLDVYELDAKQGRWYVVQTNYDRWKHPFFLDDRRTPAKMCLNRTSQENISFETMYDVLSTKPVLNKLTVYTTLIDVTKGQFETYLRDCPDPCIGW
T1 sequence (Q13510 22-142 limits assumed): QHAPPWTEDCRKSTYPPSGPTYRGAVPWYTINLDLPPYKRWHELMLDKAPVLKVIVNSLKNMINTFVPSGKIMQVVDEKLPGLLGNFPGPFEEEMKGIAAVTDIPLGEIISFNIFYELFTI
Experimental: Cells were seeded at 2×10^4 cells per well in 50 μl Acid ceramidase activity was measured at 24 hours using the RBM14C12 fluorogenic substrate as previously described (22,34).

[5] = Solubility in vehicles for i.v. drug delivery; format: physicochemical

CCCCCCCCCCCCCCC[C@@H](O)[C@H](CO)NC(=O)CCl [SACLAC, N-[(2S,3R)-1,3-dihydroxyoctadecan-2-yl]2-chloroacetamide]
loss of mitochondrial membrane potential [1]: occurred in parallel with positive staining for the apoptosis marker annexin V | maximal serum concentration, IV vs IP delivery ([2]; 5 mg/kg i.v. in β-HPCD vs 40 mg/kg i.p. in DMSO): higher maximal serum concentration than IP delivery | half-life in the blood ([2]; 40 mg/kg i.p. in DMSO or 5 mg/kg i.v. in β-HPCD): short half-life | peak serum SACLAC levels ([2]; after changing administration route and vehicle): less than 1 μM | uptake following i.p. injection ([2]; mouse, in vivo, ip): suboptimal uptake | SF3B1 levels [3]: reduced | ratio of Mcl-1S/L [3]: increased | AC activity reduced by ([4]; HL-60/VCR): 98% | AC activity reduced by ([4]; OCI-AML2): 100% | AC activity reduced by ([4]; THP-1): 71% | solubility in vehicles for i.v. drug delivery [5]: low solubility
